Data taken from ChEMBL document CHEMBL4840371 (Bioorg Med Chem, 2021).
pEC50, pIC50, pKi: −log10 of the molar value.

Key:
[1] = Inhibition of Escherichia coli recombinant his-tagged DHDPS using (S)-aspartate-semialdehyde as a substrate preincubated for 12 mins followed by substrate addition by UV-Vis spectrophotometer based coupled DHDPS-DHDPR assay
HepG2 = assay: Cytotoxicity against human HepG2 cells assessed as reduction in cell viability measured after 48 hrs by MTT assay; format: cell-based; details: HepG2, 48 h
HEK293 = assay: Cytotoxicity against HEK293 cells assessed as reduction in cell viability measured after 48 hrs by MTT assay; format: cell-based; details: Homo sapiens, HEK293, 48 h
[2] = Aqueous solubility of the compound; format: physicochemical; details: buffer
[3] = Inhibition of Campylobacter jejuni DHDPS using ASA as a substrate in presence of NADPH by DHDPS-DHDPR coupled assay

Structure (SMILES)	pIC50 [1]	other results
CCOC(=O)CSC1=NC(=O)/C(=C/c2ccc(OC)cc2)S1		solubility [2]: Insoluble
O=C(O)CN1C(=O)S/C(=C\c2cccnc2)C1=O	3.86	
COc1ccc(/C=C2\SC(=S)N(CC(=O)O)C2=O)cc1	3.27	pEC50 (HepG2): 3.70; pEC50 (HEK293): 3.70
COc1cccc(/C=C2\SC(=O)N(CC(=O)O)C2=O)c1	3.96	
COc1ccc(/C=C2\NC(=S)NC2=O)cc1	3.49	
COc1ccc(/C=C2\SC(=S)NC2=O)cc1	< 3.30	
CN(C)c1ccc(/C=C2\SC(=O)N(CC(=O)O)C2=O)cc1	< 3.30	
COc1ccc(/C=C2\NC(=O)NC2=O)cc1	3.91	
COc1ccc(/C=C2\SC(=O)N(CC(N)=O)C2=O)cc1		solubility ([2]; read-out: solubility): < 31 µM
NCCCC[C@@](N)(CC[C@](N)(CCCCN)C(=O)O)C(=O)O		pKi [3]: 6.85
COc1ccc(/C=C2\SC(=O)N(CC(=O)O)C2=O)cc1OC	3.94	
O=C(O)CN1C(=O)S/C(=C\c2ccccc2Cl)C1=O	3.86	
O=C(O)CN1C(=O)S/C(=C\c2cccc3ccccc23)C1=O	4.01	pEC50 (HepG2): < 3.30; pEC50 (HEK293): < 3.30
COc1ccc(/C=C2\SC(=O)N(CC#N)C2=O)cc1		solubility ([2]; read-out: solubility): < 250 µM
O=C(O)CN1C(=O)S/C(=C\c2ccc(OC(F)(F)F)cc2)C1=O	4.01	
O=C(O)CN1C(=O)S/C(=C\c2ccc(O)cc2O)C1=O	3.79	
COc1ccc(CC2SC(=O)N(CC(=O)O)C2=O)cc1 (stereo not given)	< 3.30	
CSc1ccc(/C=C2\SC(=O)N(CC(=O)O)C2=O)cc1	3.90	
O=C(O)CN1C(=O)S/C(=C\c2ccc(O)c(Cl)c2)C1=O	3.50	
O=C(O)CN1C(=O)S/C(=C\c2ccc3ccccc3n2)C1=O	3.96	
O=C(O)CN1C(=O)S/C(=C\c2ccc(C(F)(F)F)cc2)C1=O	3.91	
COc1ccc(/C=C2\SC(=O)N(CCC(=O)O)C2=O)cc1	< 3.60	
O=C(O)CN1C(=O)S/C(=C\c2ccc(O)cc2)C1=O	3.99	
O=C(O)CN1C(=O)S/C(=C\c2cccc(Cl)c2)C1=O	3.92	
COc1cccc(/C=C2\SC(=O)N(CC(=O)O)C2=O)c1OC	3.97	
Nc1ccc(/C=C2\SC(=O)N(CC(=O)O)C2=O)cc1	3.82	
COc1ccc(/C=C2\NC(=S)N(CC(=O)O)C2=O)cc1	3.65	pEC50 (HepG2): < 3.30; pEC50 (HEK293): < 3.30
COc1ccc(/C=C2\SC(=N)NC2=O)cc1	3.81	

Further lines, with some results ahead:

pIC50 [1]	Structure (SMILES)	other results
4.12	O=C(O)CN1C(=O)S/C(=C\c2ccc3ccccc3c2)C1=O	pEC50 (HepG2): 3.70; pEC50 (HEK293): 3.70
4.15	O=C(O)CN1C(=O)S/C(=C\c2ccc(OCc3ccccc3)cc2)C1=O	pEC50 (HepG2): 3.70; pEC50 (HEK293): 3.70
4.10	Cc1ccc(/C=C2\SC(=O)N(CC(=O)O)C2=O)cc1	
4.33	COc1ccc(/C=C2\SC(=O)N(CC(=O)O)C2=O)cc1	pEC50 (HepG2): < 3.30; pEC50 (HEK293): < 3.30
4.14	CCOc1ccc(/C=C2\SC(=O)N(CC(=O)O)C2=O)cc1	
4.15	O=C(O)CN1C(=O)S/C(=C\c2ccc(C(=O)O)cc2)C1=O	
4.10	O=C(O)CN1C(=O)S/C(=C\c2ccccn2)C1=O	
4.17	COc1ccc(/C=C2\SC(=O)N(CCCC(=O)O)C2=O)cc1	
4.18	COc1ccc(/C=C2\NC(=O)N(CC(=O)O)C2=O)cc1	pEC50 (HepG2): < 3.30; pEC50 (HEK293): < 3.30
4.10	O=C(O)CN1C(=O)S/C(=C\c2ccccc2)C1=O	
4.04	O=C(O)CN1C(=O)S/C(=C\c2ccc(F)cc2)C1=O	
4.10	N#Cc1ccc(/C=C2\SC(=O)N(CC(=O)O)C2=O)cc1	
4.17	CC(=O)Nc1ccc(/C=C2\SC(=O)N(CC(=O)O)C2=O)cc1	
4.03	O=C(O)CN1C(=O)S/C(=C\c2c[nH]cn2)C1=O	
4.05	COc1ccc(/C=C2\SC(=O)N(Cc3nnn[nH]3)C2=O)cc1	
4.13	O=C(O)CN1C(=O)S/C(=C\c2ccc(Br)cc2)C1=O	
4.05	O=C(O)CN1C(=O)S/C(=C\c2ccncc2)C1=O	
4.34	COc1ccc(/C=C2\SC(=O)N(CC(=O)O)C2=O)cn1	pEC50 (HepG2): < 3.30; pEC50 (HEK293): < 3.30
4.14	O=C(O)CN1C(=O)S/C(=C\c2cccs2)C1=O	pEC50 (HepG2): < 3.30; pEC50 (HEK293): < 3.30
4.15	COc1ccccc1/C=C1\SC(=O)N(CC(=O)O)C1=O	
4.08	O=C(O)CN1C(=O)S/C(=C\c2ccc(Cl)cc2)C1=O	
4.06	O=C(O)CN1C(=O)S/C(=C\c2ccsc2)C1=O	pEC50 (HepG2): < 3.30; pEC50 (HEK293): < 3.30
4.23	O=C(O)CN1C(=O)S/C(=C\c2ccc(=O)[nH]c2)C1=O	
4.15	COc1ccc(/C=C2\SC(=O)NC2=O)cc1	pEC50 (HepG2): 3.70; pEC50 (HEK293): 3.76
4.41	COc1ccc(C=C2SC(=O)N(CC(=O)O)C2=O)cc1 (mixture of isomers)	
